Literature values in PMC3159817 (Journal of chemical information and modeling, 2011).

Assays:
[1] = test system: HIV-1 reverse transcriptase Y501 mutants
[2] = test system: RNase H active site of RT with DNA:RNA substrate bound

In the case of CC(C)(C)c1ccc(C(=O)NN=Cc2c(O)ccc3ccccc23)cc1 [BBNH, N-(4-tert-butylbenzoyl)-2-hydroxy-1-naphthaldehyde hydrazone], the “effect of Y501 mutations on inhibition” value [1] is listed as “mutations of Y501 result in resistance to inhibition”.
In the case of CC(C)c1ccc(O)c(=O)c(O)c1 [β-thujaplicinol], the “competition with nucleic acid substrate” value [2] is given as “appears unable to compete with the intact nucleic acid substrates”.
